In assay [1] the target is T1, ERK2 (Homo sapiens, UniProt P28482).
T1 construct: purchased Jubilant Biosys
The assay is described as follows: ERK2 HTRF (biochemical) assay. The settings on record: HTRF. Summed up:
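Compounds were tested as half-log dilutions from 0.0005 to 10 uM in Tris pH 7.5/MgCl2 buffer, with a substrate mix of 1 uM biotin-MBP peptide and 24 uM ATP and an enzyme mix of 25 nM ERK2. Reaction ran 60 min at room temperature. Phospho-MBP was detected by HTRF (Eu-anti-phospho-MBP/SA-APC, 665/620 nm), and IC50 was fitted with a variable-slope sigmoidal curve.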
Background: TR-FRET usually uses a lanthanide donor and a delayed reading to cut background.

The target in assay [2] is T2, ERK1 (Homo sapiens, UniProt P27361).
T2 construct: purchased Jubilant Biosys
As to the kind of experiment: ERK1 HTRF (biochemical) assay. The settings on record: HTRF. Here is the method:
ERK1 and ERK2 HTRF (Biochemical) Assays
These assays employed a homogeneous time resolved fluorescence (HTRF) technique. […] The plate was incubated at room temperature for 60 min with shaking. […] The IC50 values (half maximal inhibitory concentration values) were subsequently determined using a sigmoidal dose-response curve (variable slope) in GraphPad Prism® 5 software.

SMILES strings stand for the structures.

T1 sequence (P28482 whole entry): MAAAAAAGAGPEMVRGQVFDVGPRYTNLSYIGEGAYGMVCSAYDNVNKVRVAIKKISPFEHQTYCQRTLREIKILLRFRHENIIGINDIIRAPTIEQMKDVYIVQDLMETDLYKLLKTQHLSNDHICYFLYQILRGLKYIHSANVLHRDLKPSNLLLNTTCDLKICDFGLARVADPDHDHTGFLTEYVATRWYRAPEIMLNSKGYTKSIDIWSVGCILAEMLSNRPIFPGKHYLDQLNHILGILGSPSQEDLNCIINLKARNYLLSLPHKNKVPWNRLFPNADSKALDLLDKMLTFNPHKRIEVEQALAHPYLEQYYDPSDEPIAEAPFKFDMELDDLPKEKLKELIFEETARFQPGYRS
T2 sequence (P27361 whole entry): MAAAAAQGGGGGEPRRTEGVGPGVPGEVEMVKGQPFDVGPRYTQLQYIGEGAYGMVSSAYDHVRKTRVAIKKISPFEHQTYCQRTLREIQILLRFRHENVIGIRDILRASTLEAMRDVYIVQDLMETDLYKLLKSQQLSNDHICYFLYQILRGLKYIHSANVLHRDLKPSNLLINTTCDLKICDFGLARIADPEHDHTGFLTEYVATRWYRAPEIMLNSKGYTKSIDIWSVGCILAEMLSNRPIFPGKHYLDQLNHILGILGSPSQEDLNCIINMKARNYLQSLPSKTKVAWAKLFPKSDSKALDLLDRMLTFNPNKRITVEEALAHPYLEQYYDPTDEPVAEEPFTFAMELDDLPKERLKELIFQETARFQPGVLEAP

Regarding `Cc1cn(-c2ccnc(Nc3ccc(F)cc3)n2)cc1C(=O)NC(CO)c1cccc(Cl)c1` (stereo not shown) [Compound 110, N-(1-(3-chloro-phenyl)-2-hydroxyethyl)-1-(2-((4-fluorophenyl)-amino)pyrimidin-4-yl)-4-methyl-1H-pyrrole-3-carboxamide], the IC50 was not above 0.05 µM in assay [1] and 0.05 to 0.1 µM in assay [2].

For `O=C(NC(CO)c1cccc(Cl)c1)c1ccn(-c2ccnc(Nc3ccc(F)cc3Cl)n2)c1` (stereo not shown) [Compound 111, 1-(2-((2-chloro-4-fluorophenyl)amino)pyrimidin-4-yl)-N-(1-(3-chlorophenyl)-2-hydroxyethyl)-1H-pyrrole-3-carboxamide], the IC50 was not above 0.05 µM in assay [1] and 0.05 to 0.1 µM in assay [2].

Consider `Cc1cnc(NC2CCOCC2)nc1-n1cnc(C(=O)NC(CO)c2cccs2)c1` (stereo not shown) [Compound 233, N-(2-hydroxy-1-(thiophen-2-yl)ethyl)-1-(5-methyl-2-((tetrahydro-2H-pyran-4-yl)amino)-pyrimidin-4-yl)-1H-imidazole-4-carboxamide], for which the figures for the concentration for half-maximal inhibition (IC50) in assay [1] and in assay [2] were not above 0.05 µM and less than 0.05 µM, respectively.

As for `CNC(=O)c1ccc(Nc2ncc(C)c(-n3ccc(C(=O)NC(CO)c4cccc(Cl)c4)c3)n2)cc1` (stereo not shown) [Compound 196, N-(1-(3-chloro-phenyl)-2-hydroxy-ethyl)-1-(5-methyl-2-((4-(methyl-carbamoyl)phenyl)amino)pyrimidin-4-yl)-1H-pyrrole-3-carboxamide], the IC50 in assay [1] is not above 0.05 µM; in assay [2], less than 0.05 µM.

For `C#Cc1cccc(Nc2nccc(-n3cc(NC(=O)N[C@H](CO)c4cccc(Cl)c4)cn3)n2)c1` [Compound 38, (S)-1-(1-(3-chlorophenyl)-2-hydroxyethyl)-3-(1-(2-((3-ethynyl-phenyl)amino)pyrimidin-4-yl)-1H-pyrazol-4-yl)urea], the values for the IC50 in assay [1] and in assay [2] were not above 0.05 µM and less than 0.05 µM, respectively.

Turning to `Cc1cnc(Nc2ccc3c(c2)OC(F)(F)O3)cc1-n1cnc(C(=O)NC(CO)c2cccc(Cl)c2)c1` (stereo not shown) [Compound 90, N-(1-(3-chlorophenyl)-2-hydroxyethyl)-1-(2-((2,2-difluoro-benzo[d][1,3]dioxol-5-yl)amino)-5-methylpyridin-4-yl)-1H-imidazole-4-carboxamide], the IC50 in assay [1] was not above 0.05 µM; in assay [2] it was 0.1 to 0.5 µM.

For the molecule `Cc1cnc(Nc2ccc(C3CCNCC3)cc2)nc1-n1ccc(C(=O)NC(CO)c2cccc(Cl)c2)c1` (stereo not shown) [Compound 215, N-(1-(3-chlorophenyl)-2-hydroxyethyl)-1-(5-methyl-2-((4-(piperidin-4-yl)phenyl)amino)pyrimidin-4-yl)-1H-pyrrole-3-carboxamide], the IC50 in assay [1] is not above 0.05 µM; in assay [2], 0.05 to 0.1 µM.

Regarding `Cc1cnc(Nc2ccc(F)cc2)nc1-n1cnc(C(=O)NCc2cccc(Cl)c2CO)c1` [Example 262, N-(3-chloro-2-(hydroxymethyl)benzyl)-1-(2-((4-fluorophenyl)-amino)-5-methyl-pyrimidin-4-yl)-1H-imidazole-4-carbox amide], the half-inhibitory concentration (IC50) in assay [1] was not above 0.05 µM; in assay [2], less than 0.05 µM.

`Cc1cnc(Nc2ccccc2Cl)nc1-n1cc(NC(=O)NC(CO)c2cccc(Cl)c2)cn1` (stereo not shown) [Compound 43, 1-(1-(3-chlorophenyl)-2-hydroxyethyl)-3-(1-(2-((2-chloro-phenyl)amino)-5-methylpyrimidin-4-yl)-1H-pyrazol-4-yl)urea]: the IC50 in assay [1] and in assay [2] was more than 2.5 µM in each case.

`O=C(NC(CO)c1cccc(Cl)c1)c1ccn(-c2ccnc(NC3CCNC3)c2)c1` (stereo not shown) [Compound 145, N-(1-(3-chloro-phenyl)-2-hydroxy-ethyl)-1-(2-(pyrrolidin-3-ylamino)pyridin-4-yl)-1H-pyrrole-3-carboxamide]: the IC50 is 0.5 to 2.5 µM in assay [1] and more than 2.5 µM in assay [2].

As to `Cc1cccc([C@@H](CO)NC(=O)c2ccn(-c3nc(N[C@H]4CCOC4)ncc3C)c2)n1` [Compound 207, N-((S)-2-hydroxy-1-(6-methylpyridin-2-yl)ethyl)-1-(5-methyl-2-(((S)-tetrahydrofuran-3-yl)amino)pyrimidin-4-yl)-1H-pyrrole-3-carboxamide], the IC50 in assay [1] is not above 0.05 µM; in assay [2], less than 0.05 µM.

For `COc1cc(F)ccc1Nc1ncc(C)c(-n2ccc(C(=O)NC(CO)c3cccc(Cl)c3)c2)n1` (stereo not shown) [Compound 142, N-(1-(3-chloro-phenyl)-2-hydroxy-ethyl)-1-(2-((4-fluoro-2-methoxy-phenyl)amino)-5-methylpyrimidin-4-yl)-1H-pyrrole-3-carboxamide], the figures for the IC50 in assay [1] and in assay [2] were not above 0.05 µM and less than 0.05 µM, respectively.

Regarding `O=C(NC(CO)c1ccccc1)c1ccn(-c2ccnc(Nc3ccc(F)cc3)c2)c1` (stereo not shown) [Compound 84, 1-(2-((4-fluoro-phenyl)amino)pyridin-4-yl)-N-(2-hydroxy-1-phenyl-ethyl)-1H-pyrrole-3-carboxamide], the IC50 was not above 0.05 µM in assay [1] and less than 0.05 µM in assay [2].

For `CC(=O)NCC(NC(=O)c1ccn(-c2cc(Nc3ccc(F)cc3)ncc2C)c1)c1ccccc1` (stereo not shown) [Compound 135, N-(2-acetamido-1-phenylethyl)-1-(2-((4-fluorophenyl)-amino)-5-methyl-pyridin-4-yl)-1H-pyrrole-3-carboxamide], the figures for the IC50 in assay [1] and in assay [2] were not above 0.05 µM and less than 0.05 µM, respectively.

On to `O=C(NC(CO)c1ccccc1)c1ccn(-c2ccnc(NC3CCOC3)c2)c1` (stereo not shown) [Compound 189, N-(2-hydroxy-1-phenylethyl)-1-(2-((tetrahydrofuran-3-yl)amino)pyridin-4-yl)-1H-pyrrole-3-carboxamide], for which the IC50 in assay [1] is 0.5 to 2.5 µM; in assay [2], 0.1 to 0.5 µM.

Turning to `Cc1cnc(Nc2ccc(N3CCNCC3)cc2)cc1-n1ccc(C(=O)NC(CO)c2ccccc2)c1` (stereo not shown) [Compound 83, N-(2-hydroxy-1-phenylethyl)-1-(5-methyl-2-((4-(piperazin-1-yl)-phenyl)amino)-pyridin-4-yl)-1H-pyrrole-3-carboxamide], the IC50 in assay [1] is not above 0.05 µM; in assay [2], 0.1 to 0.5 µM.

For the molecule `Cc1cnc(NC(CO)CO)nc1-n1cnc(C(=O)N[C@H](CO)c2cccc(Cl)c2)c1` [Example 260, (S)-N-(1-(3-chlorophenyl)-2-hydroxyethyl)-1-(2-((1,3-dihydroxy-propan-2-yl)amino)-5-methylpyrimidin-4-yl)-1H-imidazole-4-carboxamide], the figures for the IC50 in assay [1] and in assay [2] were not above 0.05 µM and less than 0.05 µM, respectively.

Consider `Cc1cnc(NC2CCOCC2)nc1-n1cnc(C(=O)NC(c2cccc(Cl)c2)C(C)O)c1` (single isomer, unassigned) [Compound 252, N-(1-(3-chlorophenyl)-2-hydroxypropyl)-1-(5-methyl-2-((tetrahydro-2H-pyran-4-yl)amino)-pyrimidin-4-yl)-1H-imidazole-4-carboxamide], for which the results for the IC50 in assay [1] and in assay [2] were not above 0.05 µM and less than 0.05 µM, respectively.

Regarding `O=C(N[C@H](CO)c1cccc(Cl)c1)c1ccn(-c2ccnc(NC3CCOC3)c2)c1` (stereo partly drawn) [Compound 188, N-((S)-1-(3-chlorophenyl)-2-hydroxyethyl)-1-(2-((tetrahydrofuran-3-yl)amino)pyridin-4-yl)-1H-pyrrole-3-carboxamide], the IC50 in assay [1] and in assay [2] was 0.1 to 0.5 µM each time.

Consider `Cc1cnc(NC2CC2)nc1-n1cc(C(=O)NC(CO)c2cccc(Cl)c2)cn1` (stereo not shown) [Compound 40, N-(1-(3-chlorophenyl)-2-hydroxyethyl)-1-(2-(cyclopropyl-amino)-5-methylpyrimidin-4-yl)-1H-pyrazole-4-carboxamide], for which the IC50 in assay [1] and in assay [2] was 0.05 to 0.1 µM each time.

`COc1cnc(Nc2ccc(F)cc2Cl)nc1-n1ccc(C(=O)NC(CO)c2ccccc2)c1` (stereo not shown) [Compound 129, 1-(2-((2-chloro-4-fluorophenyl)amino)-5-methoxy-pyrimidin-4-yl)-N-(2-hydroxy-1-phenylethyl)-1H-pyrrole-3-carboxamide]: the IC50 is not above 0.05 µM in assay [1] and less than 0.05 µM in assay [2].

For the molecule `Cc1cnc(NC2CCCOC2)nc1-n1ccc(C(=O)N[C@H](CO)c2cccc(Cl)c2)c1` (stereo partly drawn) [Compound 152, N-((S)-1-(3-chlorophenyl)-2-hydroxyethyl)-1-(5-methyl-2-((tetrahydro-2H-pyran-3-yl)amino)pyrimidin-4-yl)-1H-pyrrole-3-carboxamide], the concentration for half-maximal inhibition (IC50) is not above 0.05 µM in assay [1] and less than 0.05 µM in assay [2].

As for `Cc1cnc(Nc2ccc(F)c(N3CCOCC3)c2)nc1-n1cnc(C(=O)NC(CN)c2cccc(Cl)c2)c1` (stereo not shown) [Example 256, N-(2-amino-1-(3-chlorophenyl)ethyl)-1-(2-((4-fluoro-3-morpholinophenyl)amino)-5-methyl-pyrimidin-4-yl)-1H-imidazole-4-carboxamide], the results for the IC50 in assay [1] and in assay [2] were not above 0.05 µM and less than 0.05 µM, respectively.

On to `Cc1cnc(NC2CCOC2)nc1-n1cnc(C(=O)NC(CN)c2cccc(Cl)c2)c1` (stereo not shown) [Compound 235, N-(2-amino-1-(3-chlorophenyl)ethyl)-1-(5-methyl-2-((tetrahydrofuran-3-yl)amino)pyrimidin-4-yl)-1H-imidazole-4-carboxamide], for which the IC50 was not above 0.05 µM in assay [1] and less than 0.05 µM in assay [2].

Take `Cc1cnc(NC2CCOCC2)nc1-n1cnc(C(=O)NCc2nccs2)c1` [Example 281, 1-(5-methyl-2-((tetrahydro-2H-pyran-4-yl)amino)-pyrimidin-4-yl)-N-(thiazol-2-ylmethyl)-1H-imidazole-4-carboxamide]: the IC50 in assay [1] is not above 0.05 µM; in assay [2], less than 0.05 µM.

As to `Cc1cccc(C(CO)NC(=O)c2cn(-c3nc(NC4CCOCC4)ncc3C)cn2)c1` (stereo not shown) [Compound 238, N-(2-hydroxy-1-(m-tolyl)ethyl)-1-(5-methyl-2-((tetrahydro-2H-pyran-4-yl)amino)pyrimidin-4-yl)-1H-imidazole-4-carboxamide], the IC50 in assay [1] is not above 0.05 µM; in assay [2], less than 0.05 µM.

The IC50 is the concentration at which inhibition is half-maximal. Read a low IC50 as inhibition by little substance.

For the origin of these results see patent publication US9896445B2, “Heterocyclic inhibitors of ERK1 and ERK2 and their use in the treatment of cancer” (Asana Biosciences, LLC, priority 2015, dated 2018).
